Where “and” joins values, the source holds several entries; their conditions need not be identical. Identical values can stand only once.
System: 883617-216-R-J1-PDC complex spheroids, growth, % test/control
Assay: Anticancer human tumor 883617-216-R-J1-PDC patient-derived bladder carcinoma cell line growth inhibition [AhR]
Details: for viability, T/C: stronger effect = lower value
Method in brief: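 Spheroids combined tumor cells with HUVEC endothelial cells and human MSCs as stroma. AhR antagonists were paired with standard or investigational drugs, each dosed in half-log steps down from near clinical Cmax, or from 10 microM where Cmax was unknown.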

[1] = curve of first compound, second compound 0.1 µM
[2] = curve of first compound, second compound 0.316 µM
[3] = curve of first compound, second compound 1 µM
[4] = curve of first compound, second compound 3.16 µM
[5] = curve of first compound, second compound 10 µM
[6] = second compound 0.1 µM, first compound 0.0316 µM
[7] = second compound 0.1 µM, first compound 0.1 µM
[8] = second compound 0.1 µM, first compound 0.316 µM
[9] = second compound 0.1 µM, first compound 1 µM
[10] = second compound 0.1 µM, first compound 3.16 µM
[11] = second compound 0.1 µM, first compound 10 µM
[12] = second compound 0.316 µM, first compound 0.0316 µM
[13] = second compound 0.316 µM, first compound 0.1 µM
[14] = second compound 0.316 µM, first compound 0.316 µM
[15] = second compound 0.316 µM, first compound 1 µM
[16] = second compound 0.316 µM, first compound 3.16 µM
[17] = second compound 0.316 µM, first compound 10 µM
[18] = second compound 1 µM, first compound 0.0316 µM
[19] = second compound 1 µM, first compound 0.1 µM
[20] = second compound 1 µM, first compound 0.316 µM
[21] = second compound 1 µM, first compound 1 µM
[22] = second compound 1 µM, first compound 3.16 µM
[23] = second compound 1 µM, first compound 10 µM
[24] = second compound 3.16 µM, first compound 0.0316 µM
[25] = second compound 3.16 µM, first compound 0.1 µM
[26] = second compound 3.16 µM, first compound 0.316 µM
[27] = second compound 3.16 µM, first compound 1 µM
[28] = second compound 3.16 µM, first compound 3.16 µM
[29] = second compound 3.16 µM, first compound 10 µM
[30] = second compound 10 µM, first compound 0.0316 µM
[31] = second compound 10 µM, first compound 0.1 µM
[32] = second compound 10 µM, first compound 0.316 µM
[33] = second compound 10 µM, first compound 1 µM
[34] = second compound 10 µM, first compound 3.16 µM
[35] = second compound 10 µM, first compound 10 µM
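Also: exposure lasted 7 days after dosing on day 3 of spheroid growth.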

IC50 [1] [nM] | IC50 [2] [nM] | IC50 [3] [nM] | IC50 [4] [nM] | IC50 [5] [nM] | Compound | viability, T/C [6] [%] | viability, T/C [7] [%] | viability, T/C [8] [%] | viability, T/C [9] [%] | viability, T/C [12] [%] | viability, T/C [13] [%] | viability, T/C [14] [%] | viability, T/C [15] [%] | viability, T/C [18] [%] | viability, T/C [19] [%] | viability, T/C [20] [%] | viability, T/C [21] [%] | viability, T/C [24] [%] | viability, T/C [25] [%] | viability, T/C [26] [%] | other results
393 | 437 | 404 | 400 | < 31.6 | COc1cccc2c1C(=O)c1c(O)c3c(c(O)c1C2=O)CC(O)(C(=O)CO)CC3OC1CC(N)C(O)C(C)O1 (configuration not stated) + Cc1cncc(-c2nc(NCCc3c[nH]c4ccccc34)c3ncn(C(C)C)c3n2)c1 | 74.5 | 66.3 | 57.9 | 18.8 | 65.3 | 62.6 | 64.4 | 14 | 81.8 | 74.5 | 62.1 | 5.5 | 77.1 | 75 | 62.7 | viability, T/C [10]: 0.11%; viability, T/C [11]: 0.16%; viability, T/C [16]: 0.05%; viability, T/C [17]: 0.15%; viability, T/C [22]: 0.05%; viability, T/C [23]: 1.21%; viability, T/C [27]: 0.89%; viability, T/C [28]: 0.17%; viability, T/C [29]: 1.17%; viability, T/C [30]: 41.7%; viability, T/C [31]: 37.4%; viability, T/C [32]: 34.3%; viability, T/C [33]: 0.82%; viability, T/C [34]: 0.12%; viability, T/C [35]: 0.16%
> 10000 | > 10000 | > 10000 | > 10000 | 68.1 | CC(C)c1c(-c2ccccc2)nc2c(C#N)c[nH]n2c1=O + Cc1cncc(-c2nc(NCCc3c[nH]c4ccccc34)c3ncn(C(C)C)c3n2)c1 | 98.7 | 93.8 | 99.3 | 99.7 | 107 | 91.8 | 93 | 97.6 | 96.6 | 114 | 107 | 104 | 105 | 109 | 115 | viability, T/C [10]: 92.6%; viability, T/C [11]: 91.7%; viability, T/C [16]: 103%; viability, T/C [17]: 94%; viability, T/C [22]: 102%; viability, T/C [23]: 111%; viability, T/C [27]: 105%; viability, T/C [28]: 111%; viability, T/C [29]: 121%; viability, T/C [30]: 53.4%; viability, T/C [31]: 48.5%; viability, T/C [32]: 48.4%; viability, T/C [33]: 41.7%; viability, T/C [34]: 43.5%; viability, T/C [35]: 55.4%
– | – | – | – | – | Nc1ncn(C2CC(O)C(CO)O2)c(=O)n1 (configuration not stated) | – | – | – | – | – | – | – | – | – | – | – | – | – | – | – | viability, T/C (compound 0.00316 µM): 88.2% and 94.6% and 84.1%; viability, T/C (compound 0.01 µM): 93.2% and 102% and 118%; viability, T/C (compound 0.0316 µM): 94.7% and 90.6% and 73.1%; viability, T/C (compound 0.1 µM): 89.7% and 97% and 93.9%; viability, T/C (compound 0.316 µM): 85.9% and 82.2% and 113%; viability, T/C (compound 1 µM): 76.2% and 75.2% and 94.4%; IC50 (curve of compound): > 1000 nM
> 1000 | > 1000 | > 1000 | > 1000 | < 3.16 | Nc1ncn(C2CC(O)C(CO)O2)c(=O)n1 (configuration not stated) + Cc1cncc(-c2nc(NCCc3c[nH]c4ccccc34)c3ncn(C(C)C)c3n2)c1 | 76.2 | 73.1 | 77.9 | 67.7 | 84.5 | 74.1 | 71.3 | 79.6 | 84.8 | 77.2 | 86.1 | 78.7 | 104 | 99.8 | 103 | viability, T/C (second compound 0.1 µM, first compound 0.00316 µM): 81.2%; viability, T/C (second compound 0.1 µM, first compound 0.01 µM): 76.9%; viability, T/C (second compound 0.316 µM, first compound 0.00316 µM): 92.2%; viability, T/C (second compound 0.316 µM, first compound 0.01 µM): 89.5%; viability, T/C (second compound 1 µM, first compound 0.00316 µM): 92.1%; viability, T/C (second compound 1 µM, first compound 0.01 µM): 89.8%; viability, T/C (second compound 3.16 µM, first compound 0.00316 µM): 97.2%; viability, T/C (second compound 3.16 µM, first compound 0.01 µM): 87.5%; viability, T/C [27]: 84.2%; viability, T/C (second compound 10 µM, first compound 0.00316 µM): 43.5%; viability, T/C (second compound 10 µM, first compound 0.01 µM): 42.6%; viability, T/C [30]: 45.2%; viability, T/C [31]: 47.7%; viability, T/C [32]: 51.2%; viability, T/C [33]: 55%

From PubChem BioAssay AID1919004 (Molecular Pharmacology Branch, DTP, NCI, 2023)
